Results on 19 compounds are retold here after ChEMBL document CHEMBL1129863, “Synthesis and biological evaluation of 5,6-diarylimidazo[2.1-b]thiazole as selective COX-2 inhibitors” (Bioorg Med Chem Lett, 1997).

Data set [1] has as its target T1, Prostaglandin G/H synthase 2 (Homo sapiens, UniProt P35354).
T1 sequence (P35354 whole entry): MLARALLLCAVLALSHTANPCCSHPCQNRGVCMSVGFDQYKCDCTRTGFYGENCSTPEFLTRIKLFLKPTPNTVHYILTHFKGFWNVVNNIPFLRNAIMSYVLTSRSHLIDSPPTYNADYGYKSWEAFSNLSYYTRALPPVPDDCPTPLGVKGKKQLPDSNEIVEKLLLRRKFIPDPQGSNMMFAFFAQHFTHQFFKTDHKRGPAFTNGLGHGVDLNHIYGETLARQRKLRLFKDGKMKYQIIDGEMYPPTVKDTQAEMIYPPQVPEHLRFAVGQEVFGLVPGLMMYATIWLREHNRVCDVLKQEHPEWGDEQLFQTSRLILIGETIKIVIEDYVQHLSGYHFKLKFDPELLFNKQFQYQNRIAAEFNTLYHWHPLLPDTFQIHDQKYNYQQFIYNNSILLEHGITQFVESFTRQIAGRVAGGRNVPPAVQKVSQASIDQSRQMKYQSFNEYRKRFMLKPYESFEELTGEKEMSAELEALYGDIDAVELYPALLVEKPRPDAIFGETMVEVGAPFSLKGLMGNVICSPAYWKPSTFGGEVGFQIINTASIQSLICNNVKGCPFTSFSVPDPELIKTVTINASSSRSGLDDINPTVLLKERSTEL
In kind it is cell-based, CHO.

For data set [2], the target named is T2, Prostaglandin G/H synthase 1 (Homo sapiens, UniProt P23219).
T2 sequence (P23219 whole entry): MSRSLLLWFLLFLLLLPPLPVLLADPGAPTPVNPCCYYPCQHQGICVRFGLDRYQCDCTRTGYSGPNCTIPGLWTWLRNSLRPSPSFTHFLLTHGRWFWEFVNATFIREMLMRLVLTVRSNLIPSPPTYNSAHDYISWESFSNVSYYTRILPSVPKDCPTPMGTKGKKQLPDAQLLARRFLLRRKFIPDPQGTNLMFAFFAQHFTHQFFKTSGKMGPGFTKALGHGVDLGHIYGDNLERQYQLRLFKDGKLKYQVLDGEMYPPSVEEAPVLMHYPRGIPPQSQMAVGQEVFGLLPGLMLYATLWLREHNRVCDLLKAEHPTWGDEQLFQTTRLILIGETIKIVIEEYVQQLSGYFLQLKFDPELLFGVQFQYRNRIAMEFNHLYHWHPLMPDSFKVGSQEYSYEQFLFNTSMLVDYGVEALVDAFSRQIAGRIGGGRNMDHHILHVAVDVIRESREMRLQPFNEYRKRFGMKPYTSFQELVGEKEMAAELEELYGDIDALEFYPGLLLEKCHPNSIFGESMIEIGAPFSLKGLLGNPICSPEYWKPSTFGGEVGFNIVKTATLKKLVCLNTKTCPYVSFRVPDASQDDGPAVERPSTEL
Description: In vitro inhibition of the production of PGE-2 in arachidonic acid stimulated chinese hamster ovary (CHO) cells transfected with human cyclooxygenase-1
Data set [3] has as its target T1, Prostaglandin G/H synthase 2. The data set is described as follows: (§1) In vivo ability to inhibit cyclooxygenase-2 enzyme in human whole blood was determined. Type of data set: organism-based.
In data set [4] the test system is Rattus norvegicus. The data set is described as follows: GI tolerance when rats were dosed at 100 mg/kg for 10 days in GI permeability assay; High level of GI tolerance. Type of data set: functional, organism-based. Also noted: dose 100 mg/kg.
Data set [5] in a line: Maximum concentration in rats at 1 hr was determined when dosed at 20 mg/Kg perorally. Type of data set: ADME, organism-based. Also noted: dose 20 mg/Kg, route oral. Conditions: rat, in vivo, po.
In data set [6] the test system is Rattus norvegicus. The data set is described as follows: Effective dose to inhibit carrageenan induced rat paw edema assay was determined. Type of data set: functional. Background: The carrageenan paw model is a standard test of acute inflammation.
Data set [7] concerns the target T2, Prostaglandin G/H synthase 1. The data set is described as follows: In vivo ability to inhibit cyclooxygenase-1 enzyme in human whole blood was determined. Type of data set: organism-based.
The species entered for data set [8] is Rattus norvegicus. The data set is described as follows: animal or person. Conditions: read-out: Inhibition.
Description: Percentage inhibition against carrageenan induced rat paw edema assay was determined at a dose of 10 mg/Kg
Data set [9] concerns the target Prostaglandin G/H synthase 2 (Homo sapiens, UniProt P35354). The description is as §1. Type of data set: organism-based. The source holds these as a separate data set.

The structures appear in SMILES notation. Where only a bound is given, the exact number is not on record here.

With `CS(=O)(=O)c1ccc(-c2c(-c3ccccc3)nc3scc(CC(=O)O)n23)cc1`, the concentration for half-maximal inhibition (IC50) – broadly, the concentration at which inhibition is half-maximal – in data set [1] is above 5000 nM.
As for `Cc1sc2nc(-c3ccc(S(C)(=O)=O)cc3)c(-c3ccccc3)n2c1C`, the IC50 in data set [1] is above 5000 nM; in [2] it was above 50 µM.
The corresponding values for `CS(=O)(=O)c1ccc(-c2nc3sccn3c2-c2ccccc2)cc1` are 3210 nM and above 50 µM.
The corresponding values for `Cc1csc2nc(-c3ccccc3)c(-c3ccc(S(C)(=O)=O)cc3)n12` are 3000 nM and above 50 µM.
In the case of `CS(=O)(=O)c1ccc(-c2c(-c3ccc(F)c(F)c3)nc3sccn23)cc1`, the 50% inhibitory concentration (IC50) in data set [1] was 12 nM; in [3] it was 2200 nM; in [2], above 50 µM.
With `CSc1ccc(-c2c(-c3ccccc3)nc3sccn23)cc1`, the IC50 in data set [1] was found to be 420 nM; in data set [2] it was 0.32 µM.
The matching figures for `CS(=O)(=O)c1ccc(-c2c(-c3ccccc3)nc3sc4ccccc4n23)cc1`: above 5000 nM and above 50 µM.
The matching figures for `Cc1csc2nc(-c3ccc(S(C)(=O)=O)cc3)c(-c3ccccc3)n12`: 1000 nM and above 50 µM.
The corresponding values for `Cc1cn2c(-c3ccccc3)c(-c3ccc(S(C)(=O)=O)cc3)nc2s1` are 140 nM and above 50 µM.
For `CSc1ccc(-c2nc3sccn3c2-c2ccccc2)cc1`, the half-maximal inhibitory concentration (IC50) came out at 5000 nM in [1] and 0.078 µM in data set [2].
For the compound `CS(=O)(=O)c1ccc(-c2c(-c3ccc(Cl)cc3)nc3sc(Cl)c(Cl)n23)cc1`, the results for the concentration for half-maximal inhibition (IC50) in data set [1] and in [2] were 3600 nM and above 50 µM, respectively.
As to `Cc1cn2c(-c3ccc(S(C)(=O)=O)cc3)c(-c3ccccc3)nc2s1`, the half-maximal inhibitory concentration (IC50) in data set [1] was 12 nM; in [3], 17500 nM; in [2] it was above 50 µM.
On to `CS(=O)(=O)c1ccc(-c2c(-c3ccccc3)nc3sccn23)cc1`, for which the IC50 in data set [1] is 16 nM; in data set [3], 900 nM; in data set [7] it was above 30 µM; in data set [2], above 50 µM. The GI tolerance entry in the data set with Rattus norvegicus [4] is recorded as “High level of GI tolerance”. In addition, the Cmax (usually the peak of the concentration-time curve) in [5] worked out at 1000 nM. Further, in the data set with Rattus norvegicus [6], the ED50 (usually the midpoint of the dose-response relation) was 2 mg/kg.
With `CS(=O)(=O)c1ccc(-c2cc(Br)sc2-c2ccc(F)cc2)cc1` [DUP-697], the inhibition in vivo at 10 mg/kg in the data set filed under Rattus norvegicus [8] amounted to 57%.
In the case of `CS(=O)(=O)c1ccc(-c2c(-c3ccc(Cl)cc3)nc3sc(Cl)cn23)cc1`, the half-inhibitory concentration (IC50) is 16 nM in data set [1] and above 50 µM in [2].
The matching figures for `CS(=O)(=O)c1ccc(-c2nc3sc4ccccc4n3c2-c2ccccc2)cc1`: above 5000 nM and above 50 µM.
Regarding `CS(=O)(=O)c1ccc(-c2c(-c3ccc(F)cc3)nc3sccn23)cc1`, the IC50 in data set [1] was 14 nM; in data set [3], 400 nM; in data set [9], 25 µM; in [2], above 50 µM. The compound also registered an ED50 in the data set with Rattus norvegicus [6] of 5 mg/kg.
In the case of `Cc1sc2nc(-c3ccccc3)c(-c3ccc(S(C)(=O)=O)cc3)n2c1C`, the IC50 in data set [1] is 5000 nM; in data set [2] it was above 50 µM.
On to `CCOC(=O)Cc1csc2nc(-c3ccccc3)c(-c3ccc(S(C)(=O)=O)cc3)n12`, for which, in data set [1], 900 nM corresponded to half-maximal inhibition (IC50).
